Test results taken from US20080119571A1, “COMPOSITIONS AND METHODS TO ENHANCE REVERSE CHOLESTEROL TRANSPORT” (REDDY US THERAPEUTICS, INC., priority 2006, published 2008).
“Also recorded” adds a separate entry of the source.

How the values were obtained:
CAD = details: 4081 asymptomatic middle-aged men with primary dyslipidemia, 5 years; cited from earlier work
SR-B1 [1] = experiment: SR-B1 gene expression in LDL-r null mouse liver, real time PCR; assay type: in vivo
Description: (§1) To determine if a test compound was capable of upregulating these three RCT pathway genes, LDL-r mice were treated with vehicle alone (control) or vehicle containing a defined amount of a test compound termed, “compound A”.
(§2) LDL-r mice were chosen because they are prone to develop atherosclerosis. After 7 days of treatment, the three RCT pathway genes were quantitated using real time PCR. […] Thus, compound A coordinately up regulated the three RCT pathway genes, namely ABCA1, LCAT, and SRB1.
(§3) This example illustrates the effect of compound A on HDL and the ABCA1, SR-B1 and LCAT genes associated with RCT in LDL-receptor (LDLr) null mice in a short term model.
(§4) Eight-weeks-old LDLr mice (Jackson Laboratories, Bar Harbor, Me.), were used for this Example. Mice were distributed into two groups of 8 mice each. One group received vehicle containing carboxymethyl cellulose and Tween-80 (Sigma Chemical Co.), and the other group received a daily dose of compound A at 25 mg/kg. […]
(§5) Next, liver and aorta samples from vehicle and compound A treated mice were removed, flash frozen in liquid nitrogen and subsequently used for RNA isolation. […] RNA was then verified and quantified using the Agilent RNA 600 Nano Assay Labchip® system, and real time PCR was performed to quantitate the gene expression of SR-B1, ABCA1 and LCAT using validated primer sets from SuperArray. […]

ABCA1 [2] = experiment: ABCA1 gene expression in LDL-r null mouse liver, real time PCR; assay type: in vivo
Description: as §1, §2, §3
Eight-weeks-old LDLr mice (Jackson Laboratories, Bar Harbor, Me.), were used for this Example. Mice were distributed into two groups of 8 mice each. […]
(§6) After one week, plasma samples were collected and used for HDL determination. Mice were euthanized by CO2, and aorta and liver samples were collected for RNA isolation.
as §5

LCAT = LCAT gene expression in LDL-r null mouse liver, real time PCR; assay type: in vivo
Description: as §1, §2, §3, §4, §5

[3] = Plasma HDL levels in LDLr null mice, short term model; assay type: in vivo, mouse; details: 7-day treatment
From the text: Upregulation of ABCA1 and LCAT also should result in the formation of HDL particles. Following 7-day treatment, compound A increased HDL levels by greater than 50% (FIG. 4).
as §3
Eight-weeks-old LDLr mice (Jackson Laboratories, Bar Harbor, Me.), were used for this Example. Mice were distributed into two groups of 8 mice each. One group received vehicle containing carboxymethyl cellulose and Tween-80 (Sigma Chemical Co.), and the other group received a daily dose of compound A at 25 mg/kg.
as §6

atherosclerotic lesions = experiment: Atherosclerotic lesion area in LDLr null mice on Western Diet, long term model; assay type: in vivo, mouse; details: high fat diet, 25 mg/kg daily, 16 weeks
From the text: The atheroprotective effects of HDL to a large extent are attributed to its ability to remove cholesterol from macrophages present in atherosclerotic lesions to transport them to liver for excretion into bile. LDLr null mice develop atherosclerosis when fed a high fat diet. […] This example illustrates the effect of compound A on HDL and atherosclerosis in LDLr null mice in a long term model. Eight-weeks-old LDLr null mice (Jackson Laboratories, Bar Harbor, Me.), were used for these studies. Two groups of 8 mice each received a Western Diet (Research Diet incorporated, New Brunswick, N.J.; D12079B containing 0.1% cholesterol) for 2 weeks. Plasma samples were collected and used for lipid analysis. Mice were then distributed into two groups, one group received vehicle containing carboxymethyl cellulose and Tween-80 (Sigma Chemical Co.), and the other group received a daily dose of compound A at 25 mg/kg. Both groups were continued on the Western Diet for another 16 weeks. At the end of the 16 weeks, the mice were euthanized by CO2, and whole aortas (from aortic sinus to the beginning of iliac aorta) were isolated, and fixed in 10% paraformaldehyde. […] Images of whole aortas were obtained by microscopic digital camera, and the lesion area was determined by computer-assisted morphometry (Image Pro, Media cybermetics) as percentages of coverage in whole aorta. […]

SR-B1 [4] = experiment: SR-B1 expression in normal animals (rat liver), real time PCR; assay type: in vivo
From the text: (§7) After 7 days of treatment RCT pathway genes were quantitated using real time PCR.

ABCA1 [5] = experiment: ABCA1 expression in normal animals (rat liver), real time PCR; assay type: in vivo
From the text: as §7

ABCA1 [6] = experiment: ABCA1 expression in HepG2 liver cells, real time PCR; assay type: cell-based, human; details: HepG2, treated overnight
Description: (§8) The hepatoma cell line HepG2 are frequently used as in vitro models of liver cells. They are easy to culture and retain many properties of liver cells including expression of various genes involved in lipid metabolism.
(§9) This example illustrates the effect of compound A on genes associated with RCT in HepG2 cells.
(§10) Human HepG2 cells were cultured in DMEM containing 4500 mg glucose/L (ATCC) supplemented with 10% fetal bovine serum (FBS), penicillin (100 U/ml), and streptomycin (100 μg/ml) in a humidified atmosphere (5% CO2 in air) at 37° C. Cells were plated onto 12 well dishes and cultured in low serum (0.5% FBS) for experiments. Cells were treated with either vehicle (DMSO) or the test compound overnight and used for RNA isolation. Briefly, cells were lysed in 300 uL of lysis buffer (Qiagen) and placed in the TissueLyser (Qiagen) for 3 minutes. Samples were then processed as described by the RNeasy mini kit. RNA was then verified and quantified using the Agilent RNA 600 Nano Assay Labchip® system, and real time PCR was performed to quantitate gene expression using validated primer sets from SuperArray. The results were illustrated in FIGS. 8-9.

SRB1 = SRB1 expression in HepG2 liver cells, real time PCR; assay type: cell-based, human; details: HepG2, treated overnight
Description: as §8, §9, §10

[7] = LDL-r mice, 10 and 25 mg/kg, 7 days of treatment, liver
[8] = normal animals, 10 and 25 mg/kg, 7 days of treatment

Structure (SMILES)	decrease in CAD (CAD) [%]	SRB1 expression in LDL-r null mouse liver (SR-B1 [1])	increase in SR-B1 expression compared to vehicle treated animals (SR-B1 [1]; [7])	ABCA1 expression in LDL-r null mouse liver (ABCA1 [2])	increase in ABCA1 expression compared to vehicle treated animals (ABCA1 [2]; [7])	LCAT expression in LDL-r null mouse liver (LCAT)	increase in LCAT expression (LCAT; LDL-r mice, 7 days of treatment, liver)	increase in HDL levels [3]	effect on atherosclerotic lesions (atherosclerotic lesions)	SRB1 expression in rat liver (SR-B1 [4])	increase in SR-B1 expression compared to vehicle treated animals (SR-B1 [4]; [8])	ABCA1 expression in rat liver (ABCA1 [5])	increase in ABCA1 expression compared to vehicle treated animals (ABCA1 [5]; [8])	ABCA1 expression in liver cells (ABCA1 [6])	ABCA1 expression in liver cells (ABCA1 [6]; listed as compound of Formula I)	SRB1 expression in liver cells (SRB1)
Cc1ccc(C)c(OCCCC(C)(C)C(=O)O)c1 [gemfibrozil]	34	–	–	–	–	–	–	–	–	–	–	–	–	–	–	–
CC(=O)c1ccc(Nc2nc(-c3ccccc3)cc(N3CCC(O)CC3)n2)cc1 [compound A]	–	induces	2-2.5 fold	induces	2-3 fold	induces	30-90%	greater than 50%	inhibits atherosclerosis development; also recorded: significant decrease	induces	2-4 fold	induces	2-4 fold	induces	capable of increasing	capable of increasing
